What was measured:
[1] = system: Stage IV breast cancer; test: Treatment of breast cancer, patient case (Example 6); assay type: in vivo, human; conditions: 10 mg/kg/day orally or IV daily for 15 consecutive days
Procedure: A subject presents with Stage IV breast cancer and axillary lymph node involvement. The subject is treated with 10 mg/kg/day of N-(3-methyl-1,1-dioxo-1,4-thiazinan-4-yl)-1-[1-phenyl, 1-methanol]methane orally or IV daily for 15 consecutive days. Upon examination, cancer involvement is found reduced by about 20%.

[2] = system: D283 medulloblastoma cells; test: Calcein AM cell viability assay, D283 medulloblastoma cells; assay type: cell-based; conditions: 48 hours
Text: (§1) For the D283 cell line, viability after exposure to RKS was decreased compared to nifurtimox (P=0.008), with similar results for the DAOY cell line (P=0.026).

[3] = system: SMSKCNR cells; test: Reactive oxygen species, carboxylated DCF flow cytometry; assay type: cell-based, human; conditions: 90 minutes incubation, vs control
Procedure: RKS-2-62 increases reactive oxygen species in neuroblastoma cells. SMSKCNR cells treated with RKS-2-62 were incubated with carboxyl-DCF. SMSKCNR cells were grown in T25 flasks and incubated in RKS-2-62 for 90 minutes prior to treatment with carboxylated DCF. Cells were collected and analyzed by flow cytometry. […] Control is the left hand peak in grey. RKS-2-62 is the right hand peak. Oxidation of DCF by reactive oxygen species (ROS) causes increased fluorescence, and a lower concentration of RKS-2-62 than of nifurtimox was required to achieve the same effect.

[4] = system: DAOY medulloblastoma cells; test: Calcein AM cell viability assay, DAOY medulloblastoma cells; assay type: cell-based; conditions: 48 hours
Text: as §1

[5] = system: SMS-KCNR neuroblastoma cells; test: cells; conditions: Homo sapiens, 48 h, read-out: cell viability, mean value
Procedure: SMS-KCNR neuroblastoma cells were incubated for 48 hours with increasing levels of either nifurtimox or RKS-2-62, and cytotoxicity was determined using the Calcein AM cell viability assay. […] SMSKCNR cells were plated in 48 wells plates and treated with 0-20 μg/mL of either RKS-2-62 or nifurtimox for 48 hours. Cell viability was assessed using Calcein AM assay.

[6] = Chloroform/water partition test; assay type: physicochemical
Procedure: In addition, RKS-2-26 is lipid soluble and likely to cross the blood brain barrier. […] Then 1 mL of distilled water was added and vortexed.

[7] = system: SMSKCNR cells; test: Neuroblastoma xenograft mouse model, oral dosing in food pellets; conditions: 3 weeks
Procedure: Nude mice were injected subcutaneously in the flank with 10^7 SMSKCNR cells and tumors were allowed to grow for 7 days. Mice were then fed either control food pellets or pellets containing 50, 100, or 150 mg/kg/day of RKS-2-62 for 3 weeks (4 mice per group). Tumors were harvested and weighed.

[8] = system: stage III ovarian cancer; test: Ovarian cancer treatment, patient case (Example 10); assay type: in vivo, human; conditions: 10 mg/kg daily orally or IV for 48 days
Procedure: A subject presents with recurrent/progressive stage III ovarian cancer refractory to all other treatments. The subject is treated daily with 10 mg/kg of N-(3-methyl-1,1-dioxo-1,4-thiazinan-4-yl)-1-[3-chloro, 5-bromo coumarin-2-carbonyl] orally or IV for 48 days.

[9] = system: Stage V Alzheimer's disease; test: Alzheimer treatment, patient case (second Example 10); assay type: in vivo, human; conditions: 5 mg/kg oral daily, chronically, six month period
Procedure: A subject presents with Stage V Alzheimer's disease. The subject is treated daily with 5 mg/kg oral doses of N-(3-methyl-1,1-dioxo-1,4-thiazinan-4-yl)-1-[3,4,5-trimethoxy phenyl sulfonyl], chronically.

[10] = system: end stage liver cancer; test: Liver cancer treatment, patient case (Example 9); assay type: in vivo, human; conditions: 10 mg/kg daily orally or IV for 48 days
Procedure: A subject presents with end stage liver cancer refractory to all other treatments. The subject is treated daily with 10 mg/kg of N-(3-methyl-1,1-dioxo-1,4-thiazinan-4-yl)-1-[1-phenyl, 1-furan-2-yl] orally or IV for 48 days.

[11] = system: Stage IV pancreatic cancer; test: Treatment of pancreatic cancer, patient case (Example 7); assay type: in vivo, human; conditions: 10 mg/kg/day tablets every other day for 30 days (15 doses)
Procedure: A subject presents with Stage IV pancreatic cancer. The subject is treated daily with 10 mg/kg/day of N-(3-methyl-1,1-dioxo-1,4-thiazinan-4-yl)-1-[1-phenyl, 1-acetic acid]methane by tablets every other day for 30 consecutive days (15 doses). Upon examination, cancer involvement is found reduced by about 20%.

[12] = system: Stage IV neuroblastoma; test: Treatment of neuroblastoma, patient case (Example 5); assay type: in vivo, human
Text: A person presents with Stage IV neuroblastoma. […] Upon examination, tumor mass is found reduced by about 50%.

[13] = system: breast cancer; test: Breast cancer prophylaxis, patient case (Example 8); assay type: in vivo, human; conditions: 5 mg/kg daily by tablets for 48 months, BRCA 1 and 2 markers
Procedure: A subject presents normally, but has BRCA 1 and 2 markers as well as a family history of breast cancer. The subject is treated daily with 5 mg/kg of N-(3-methyl-1,1-dioxo-1,4-thiazinan-4-yl)-1-[5,6-dimethoxy coumarin-2-yl]methanimine by tablets for 48 months.

CC1CS(=O)(=O)CCN1NC(CO)c1ccccc1 (stereo not shown) [N-(3-methyl-1,1-dioxo-1,4-thiazinan-4-yl)-1-[1-phenyl, 1-methanol]methane]
reduction of cancer involvement [1]: about 20%

CC1CS(=O)(=O)CCN1N=Cc1c(Cl)c2cc(Br)ccc2oc1=O (stereo not shown) [RKS-2-62]
growth inhibition compared with nifurtimox ([2]; 0-10 μg/mL): inhibited the growth of both cell lines in a dose-dependent fashion and to a greater extent than nifurtimox
cytotoxicity at 10 µg/mL ([2]; 10 μg/mL, read-out: decrease of viability): > 80%
production of ROS (DCF fluorescence) [3]: increase in production of ROS
growth inhibition compared with nifurtimox ([4]; 0-10 μg/mL): inhibited the growth of both cell lines in a dose-dependent fashion and to a greater extent than nifurtimox
cytotoxicity at 10 µg/mL ([4]; Homo sapiens, 10 μg/mL, read-out: decrease of viability): > 80%
viability at 5 µg/mL [5]: 51.9%
lipid solubility [6]: lipid soluble
distribution between chloroform layer and aqueous layer ([6]; 10 μg/μL in chloroform, 1 mL distilled water added, vortexed): remained solely in the chloroform layer and not the aqueous layer
solubility in chloroform ([6]; solution of 10 μg/μL): shown to dissolve in chloroform
decrease of tumor weight compared to the control group ([7]; 50 mg/kg/day oral in food pellets): greater than 75%
decrease of tumor weight compared to the control group ([7]; 100 mg/kg/day oral in food pellets): greater than 75%
decrease of tumor weight compared to the control group ([7]; 150 mg/kg/day oral in food pellets): greater than 75%
tolerability compared with nifurtimox ([7]; mice, oral): better tolerated in mice than nifurtimox

CC1CS(=O)(=O)CCN1NC(=O)c1c(Cl)c2cc(Br)ccc2oc1=O (stereo not shown)
tumor growth upon examination [8]: no further tumor growth is noted

COc1cc(S(=O)(=O)NN2CCS(=O)(=O)CC2C)cc(OC)c1OC (stereo not shown) [N-(3-methyl-1,1-dioxo-1,4-thiazinan-4-yl)-1-[1-(3,4,5-trimethoxyphenylsulfonyl]]
progression of the disease [9]: substantially no progression of the disease is noted

CC1CS(=O)(=O)CCN1N(c1ccccc1)c1ccco1 (stereo not shown) [N-(3-methyl-1,1-dioxo-1,4-thiazinan-4-yl)-1-[1-phenyl, 1-furan-2-yl]]
liver cancer involvement upon examination [10]: no liver cancer involvement is found

CC1CS(=O)(=O)CCN1NC(CC(=O)O)c1ccccc1 (stereo not shown) [N-(3-methyl-1,1-dioxo-1,4-thiazinan-4-yl)-1-[1-phenyl, 1-acetic acid]methane]
reduction of cancer involvement [11]: about 20%

CC1CS(=O)(=O)CCN1/N=C\c1ccc([N+](=O)[O-])o1 (stereo not shown) [nifurtimox, reference compound]
viability at 5 µg/mL [5]: 88.4%

CC1CS(=O)(=O)CCN1NC(c1ccccc1)c1ccccc1 (stereo not shown) [N-(3-methyl-1,1-dioxo-1,4-thiazinan-4-yl)-1-[1,1-diphenyl]methane]
tumor response ([12]; 15 mg/kg/day orally or IV for 2 weeks): tumor stabilization
reduction of tumor mass ([12]; with further addition of cyclophosphamide and topotecan, 8 weeks): about 50%

COc1cc2cc(C=NN3CCS(=O)(=O)CC3C)c(=O)oc2cc1OC (stereo not shown)
cancer involvement upon examination [13]: no cancer involvement is found

Source: patent publication US8193180B2, “N-amino tetrahydrothiazine derivatives, method of manufacture and use” (Women & Infants Hospital, priority 2007, dated 2012)
